Data on 1 molecule can be found in patent US12180159B2, “Activators of the unfolded protein response” (The Board of Trustees of the University of Illinois, priority 2018, dated 2024).

One assay deals with ERα cell lines. Description: 24-hour crystal violet assay and long-term cell culturing. The format is cell-based, human. The conditions noted are these: 24-hour crystal violet assay and long-term culture. As for the experimental part: FIG. 36. Discovery of SERK-F6 (also known as, C(−)-105, (−)-105, (R)-105, (−)-1, or (R)-1), a compound that kills ERα-positive cancer cells. a, Chemical structures of BHPI and racemic compound 1 (i.e. (±)-1), and their cytotoxic activity on T47D breast cancer cells after 24-hour incubations with concentrations as indicated in nM. Cells were stained with annexin V-FITC and PI dyes prior to analysis via flow cytometry. […] Cells were incubated with SERK-F6 or positive control, Raptinal, for 24 hours and then stained with annexin V-FITC and PI dyes and analyzed via flow cytometry. Error bars represent S.E.M of 3 independent replicates. c, IC50 values of SERK-F6 after 24-hour incubation against a panel of cancer cell lines grouped by their reported ERα status. Cell viability was measured by Alamar blue fluorescence and set relative to a vehicle control and a quantitative dead control treated with Raptinal. Error bars represent S.E.M of 3 independent experiments. d, Crystal violet staining of T47D cells after 24-hour incubations with compounds and concentrations as indicated. Image is representative of 2 independent experiments. e,f, Long-term cell culture experiment with T47D, TDG, and TYS cells. […] Cell number was determined by MTS. […]
An important aspect for cytotoxic therapy is the ability to quantitatively kill a cell population. […]

The test system of a further assay is MDA-MB-231 cells. Description: Cell death of MDA-MB-231 cells (annexin V-FITC / PI flow cytometry). To be noted: 24 hours. The format is cell-based, human. The procedure: FIG. 36. Discovery of SERK-F6 (also known as, C(−)-105, (−)-105, (R)-105, (−)-1, or (R)-1), a compound that kills ERα-positive cancer cells. a, Chemical structures of BHPI and racemic compound 1 (i.e. (±)-1), and their cytotoxic activity on T47D breast cancer cells after 24-hour incubations with concentrations as indicated in nM. Cells were stained with annexin V-FITC and PI dyes prior to analysis via flow cytometry. […] Cells were incubated with SERK-F6 or positive control, Raptinal, for 24 hours and then stained with annexin V-FITC and PI dyes and analyzed via flow cytometry. Error bars represent S.E.M of 3 independent replicates. c, IC50 values of SERK-F6 after 24-hour incubation against a panel of cancer cell lines grouped by their reported ERα status. Cell viability was measured by Alamar blue fluorescence and set relative to a vehicle control and a quantitative dead control treated with Raptinal. Error bars represent S.E.M of 3 independent experiments. d, Crystal violet staining of T47D cells after 24-hour incubations with compounds and concentrations as indicated. […] Cell number was determined by MTS.
Through a medicinal chemistry campaign, (±)-1 was discovered to show an unexpected cytotoxic phenotype (FIG. 36A). […] The dose dependent activity of SERK-F6 was determined against a panel of cancer cell lines (FIG. 36C and FIG. 37A) for ERα.
A general note: Flow cytometry measures light scatter and fluorescence of single cells or particles in a stream.

As to `O=C1Nc2c(C(F)(F)F)cccc2C1(c1ccc(O)cc1)c1ccc(OC(F)(F)F)cc1` (single isomer, unassigned; (-)) [(−)-105, 3-(4-hydroxyphenyl)-3-(4-(trifluoromethoxy)phenyl)-7-(trifluoromethyl)indolin-2-one], the “quantitative killing of ERα cell lines” value in the assay on ERα cell lines is recorded as “quantitatively kills”. Moreover, in the assay with MDA-MB-231 cells, the “effects in ERα negative MDA-MB-231 cells” value is given as “minimal effects”.
